The structures appear in SMILES notation. Bounds are passed on as bounds.

The assay deals with Protein Wnt-3a (Mus musculus, UniProt P27467).
Sequence of Protein Wnt-3a (P27467 whole entry): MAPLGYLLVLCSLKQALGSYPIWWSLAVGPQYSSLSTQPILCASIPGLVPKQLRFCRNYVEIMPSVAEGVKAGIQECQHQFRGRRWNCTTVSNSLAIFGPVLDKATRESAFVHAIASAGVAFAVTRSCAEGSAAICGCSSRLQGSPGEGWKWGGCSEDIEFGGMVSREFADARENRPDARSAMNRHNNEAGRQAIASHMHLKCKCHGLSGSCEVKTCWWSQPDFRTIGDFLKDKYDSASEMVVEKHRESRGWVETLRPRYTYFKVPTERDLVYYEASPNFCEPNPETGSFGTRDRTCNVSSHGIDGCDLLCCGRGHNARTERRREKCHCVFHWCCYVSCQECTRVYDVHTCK
In general, IC50 refers to the concentration needed to halve the response being measured. As for `O=C(COC(=O)c1ccc2[nH]c3c(c2c1)CCCC3)Nc1ccccc1Cl` [[2-[(2-chlorophenyl)amino]-2-oxidanylidene-ethyl] 6,7,8,9-tetrahydro-5H-carbazole-3-carboxylate], the IC50 is more than 50 µM. Under `O=C(Cn1c(-c2ccccc2)c[n+]2ccsc12)c1ccc(Br)cc1` [SMR000354292] stands more than 50 µM; under `C[n+]1c2n(c3ccccc31)N=C(c1ccccc1)CS2` [SMR000176360], more than 50 µM. Regarding `Cc1cccc(C)c1N=C(S)N(CCN1CCCCCC1)Cc1ccco1` [1-[2-(1-azepanyl)ethyl]-3-(2,6-dimethylphenyl)-1-(2-furanylmethyl)thiourea], the IC50 was more than 50 µM. For `C=CCN1C(=O)C(=NNC(=S)Nc2cccc(C)c2)c2ccccc21` [1-(3-methylphenyl)-3-[(Z)-(2-oxidanylidene-1-prop-2-enyl-indol-3-ylidene)amino]thiourea] the value was 29.2 µM.

These data come from BindingDB's records for doi:10.7270/Q25B012X (Burnham Center For Chemical Genomics, 2012).
